Experimental findings from ChEMBL document CHEMBL4665705 (J Med Chem, 2020) are described below.

The target of data set [1] is Bromodomain-containing protein 4 (Homo sapiens, UniProt O60885, Y97A).
Data set [2] concerns the target Bromodomain-containing protein 4 (Homo sapiens, UniProt O60885, Y390A).
The conditions of data set [3]: buffer, pH 7.4.
The nature of the next data set: physchem. Conditions: phosphate buffered saline, pH 7.4.
Another data set in a line: in vitro. Conditions: PAMPA, pH 7.4. For orientation: PAMPA measures passive passage across an artificial lipid membrane.
A short description of data set [4]: Genotoxicity in Salmonella typhimurium TA1535 in absence of S9 fraction by Ames test. In kind it is toxicity. Conditions: salmonella enterica subsp. enterica serovar typhimurium. A general note: The Ames test uses bacterial strains that need an amino acid and regain growth without it when mutated back.
A short description of data set [5]: Genotoxicity in Salmonella typhimurium TA1537 in absence of S9 fraction by Ames test. It is filed as toxicity. To be noted: salmonella enterica subsp. enterica serovar typhimurium.
A short description of data set [6]: Genotoxicity in Salmonella typhimurium TA98 in absence of S9 fraction by Ames test. It is filed as toxicity. Conditions: salmonella enterica subsp. enterica serovar typhimurium.
Data set [7] in a line: Genotoxicity in Salmonella typhimurium TA100 in absence of S9 fraction by Ames test. Conditions: salmonella enterica subsp. enterica serovar typhimurium. It is filed as toxicity.
A short description of data set [8]: Genotoxicity in Escherichia coli WP2uvrA in absence of S9 fraction by Ames test. In kind it is toxicity.
The nature of data set [9]: Genotoxicity in Salmonella typhimurium TA1535 in presence of S9 fraction by Ames test. It is filed as toxicity, subcellular. Conditions: salmonella enterica subsp. enterica serovar typhimurium.
The nature of data set [10]: Genotoxicity in Salmonella typhimurium TA1537 in presence of S9 fraction by Ames test. In kind it is toxicity, subcellular. To be noted: salmonella enterica subsp. enterica serovar typhimurium.
The nature of data set [11]: Genotoxicity in Salmonella typhimurium TA98 in presence of S9 fraction by Ames test. To be noted: salmonella enterica subsp. enterica serovar typhimurium. It is filed as toxicity, subcellular.
Data set [12] is described as follows: Genotoxicity in Salmonella typhimurium TA100 in presence of S9 fraction by Ames test. It is filed as toxicity, subcellular. Conditions: salmonella enterica subsp. enterica serovar typhimurium.
Data set [13] can be described thus: Genotoxicity in Escherichia coli WP2uvrA in presence of S9 fraction by Ames test. In kind it is toxicity, subcellular.
Data set [14] can be described thus: Drug metabolism in human liver S9 fraction assessed as deacetylation to aniline at 10 uM incubated for 120 mins by FTMS analysis. In kind it is ADME, subcellular. Conditions: s9, 2 h.
The nature of data set [15]: Drug metabolism in rat liver S9 fraction assessed as deacetylation to aniline at 10 uM incubated for 120 mins by FTMS analysis. It is filed as ADME, subcellular. To be noted: s9, 2 h.

Broadly, the IC50 is the point on the concentration scale where inhibition reaches its midpoint. A word on the kinetic solubility: it is solubility judged after dilution from a stock solution rather than from solid. The term Papp denotes the rate of passage across a membrane or cell layer, normalised by area and donor concentration. Read a high Papp as fast passage.

Structures are written as SMILES. Values after ≈ are worked out from the molar mass of the structure shown.

With `CC(=O)Nc1ccc(C(=O)NC2CCOCC2)cc1O[C@H](C)c1ccccc1`, the 50% inhibitory concentration (IC50) in data set [1] is 12.6 µM; in [2], more than 50.1 µM. Besides, in [3], the CHI is on record as 3.8. The molecule also gave a kinetic solubility in “physchem” of 159 µg/mL (≈ 416 µM). The apparent permeability (Papp) in the data set “in vitro” came out at 30 ×10⁻⁶ cm/s.
In the case of `Nc1c(O)cc(C(=O)O)cc1F`, the Activity entry is given as “Non-Toxic” in data set [4]; “Non-Toxic” in data set [5]; “Non-Toxic” in [6]; “Non-Toxic” in data set [7]; “Toxic” in [8]; “Non-Toxic” in [9]. Also, the Activity result in [10] is reported as “Non-Toxic”; in [11], “Non-Toxic”; in data set [12], “Non-Toxic”; in data set [13] it was “Toxic”.
Take `CC(=O)Nc1ccc(C(=O)NCCCN)cc1OCc1cccc(Cl)c1`: the CHI in [3] was 2.1. In addition, the solubility (kinetic) in the data set “physchem” worked out at 96 µg/mL (≈ 255 µM). Further, the Papp in “in vitro” was determined as 1.1 ×10⁻⁶ cm/s.
With `CC(=O)Nc1ccc(C(=O)NCCCN)cc1OCc1ccc(C(N)=O)cc1`, the figures for the IC50 in data set [1] and in data set [2] were 10 µM and more than 50.1 µM, respectively. Moreover, the CHI in data set [3] worked out at 0. This molecule also gave a solubility (kinetic) in the data set “physchem” of 151 µg/mL (≈ 393 µM). The molecule also had a Papp in “in vitro” of less than 0.3 ×10⁻⁶ cm/s.
For `CC(=O)Nc1ccc(C(=O)NCCCO)cc1OCc1ccccc1` the same measures were 3.98 µM, more than 50.1 µM, 2.4, 109 µg/mL (≈ 318 µM) and 9.4 ×10⁻⁶ cm/s.
On to `CC(=O)Nc1ccc(C(=O)NCCC2CCOCC2)cc1OCc1ccccc1`, for which the half-inhibitory concentration (IC50) in data set [1] is 1.58 µM; in data set [2], more than 50.1 µM. Also, the CHI in data set [3] was found to be 4. For the same molecule, in “physchem”, the kinetic solubility was found to be 200 µg/mL (≈ 504 µM). Moreover, in the data set “in vitro”, the apparent permeability (Papp) amounted to 10.4 ×10⁻⁶ cm/s.
For `CC(=O)Nc1ccc(C(=O)N[C@H]2CC[C@H](O)CC2)cc1OCc1ccccc1` the same measures were 1.26 µM, more than 50.1 µM, 2.7, 174 µg/mL (≈ 455 µM) and 7.9 ×10⁻⁶ cm/s.
Regarding `CC(=O)Nc1ccc(C(=O)NC2CCOCC2)cc1OCc1ccccc1`, the concentration for half-maximal inhibition (IC50) is 2 µM in [1] and more than 50.1 µM in data set [2]. The same molecule came in with a CHI in data set [3] of 3.3. The same molecule showed a kinetic solubility in “physchem” of 155 µg/mL (≈ 421 µM). In addition, in the data set “in vitro”, the Papp was determined as 19 ×10⁻⁶ cm/s.
Turning to `CC(=O)Nc1ccc(C(=O)NCC2CCNCC2)cc1OCc1ccccc1`, the concentration for half-maximal inhibition (IC50) in data set [1] is 0.794 µM; in [2], more than 50.1 µM. Moreover, in data set [3], the CHI is on record as 1.7. The same molecule showed a kinetic solubility in “physchem” of less than 3 µg/mL. Besides, in “in vitro”, the Papp turned out to be 17 ×10⁻⁶ cm/s.
For `CC(=O)Nc1ccc(C(=O)NCCCN)cc1OCc1cccnc1` the same measures were 15.8 µM, more than 50.1 µM, 0.2, 130 µg/mL (≈ 380 µM) and less than 0.3 ×10⁻⁶ cm/s.
For `CC(=O)Nc1ccc(C(=O)NCCCN)cc1OCc1ccc(Cl)cc1` the same measures were 2 µM, 25.1 µM, 2.2, 108 µg/mL (≈ 287 µM) and less than 0.3 ×10⁻⁶ cm/s.
With `CC(=O)Nc1ccc(C(=O)NCCCN)cc1OCc1ccccc1Cl`, the IC50 was 2.51 µM in data set [1] and 39.8 µM in data set [2]. Moreover, the CHI in data set [3] was found to be 1.9. In addition, in “physchem”, the solubility (kinetic) came to 124 µg/mL (≈ 330 µM). Also, the apparent permeability coefficient (Papp) in the data set “in vitro” was 1.5 ×10⁻⁶ cm/s.
For `CC(=O)Nc1ccc(C(=O)NCCO)cc1OCc1ccccc1` the same measures were 5.01 µM, more than 50.1 µM, 2.3, 162 µg/mL (≈ 493 µM) and 6.8 ×10⁻⁶ cm/s.
For `CCNC(=O)c1cc(OCc2ccccc2)c(NC(C)=O)cc1F` the same measures were 1.58 µM, more than 50.1 µM, 4.4, 159 µg/mL (≈ 481 µM) and 67 ×10⁻⁶ cm/s.
For the molecule `COc1ccc(COc2cc(C(=O)NCCCN)ccc2NC(C)=O)cc1`, the IC50 in data set [1] is 2.51 µM; in data set [2], 39.8 µM. Moreover, the CHI in data set [3] is 1.3. Further, the kinetic solubility in “physchem” is 114 µg/mL (≈ 307 µM). Also, the Papp in the data set “in vitro” was less than 0.3 ×10⁻⁶ cm/s.
In data set [3], `CC(=O)Nc1ccc(C(=O)NCCCN)cc1OCc1ccc(C(C)C)cc1` showed a CHI of 3.1. In “physchem”, this molecule showed a solubility (kinetic) of 114 µg/mL (≈ 297 µM). The molecule also yielded a Papp in the data set “in vitro” of 0.77 ×10⁻⁶ cm/s.
Take `CC(=O)Nc1ccc(C(=O)NCCCN)cc1OCc1ccccc1`: the IC50 in [1] is 1.58 µM; in data set [2], 31.6 µM. This molecule gave a CHI in [3] of 1.6. The molecule also displayed a kinetic solubility in the data set “physchem” of 123 µg/mL (≈ 360 µM). In the data set “in vitro”, this molecule returned a Papp of less than 0.3 ×10⁻⁶ cm/s.
The matching figures for `CC(=O)Nc1ccc(C(=O)N[C@H]2CC[C@H](O)CC2)cc1O[C@@H](C)c1ccccc1`: 0.158 µM, 39.8 µM, 3.1, 170 µg/mL (≈ 429 µM) and 9.3 ×10⁻⁶ cm/s.
The matching figures for `CCNC(=O)c1ccc(NC(C)=O)c(OCc2ccccc2)c1`: 6.31 µM, more than 50.1 µM, 3.5, 143 µg/mL (≈ 458 µM) and 32 ×10⁻⁶ cm/s.
Consider `C[C@H](Oc1cc(C(=O)N[C@H]2CC[C@H](O)CC2)ccc1N)c1ccccc1`, for which the Activity entry in [4], in data set [5], in data set [6], in data set [7], in data set [8] and in data set [9] was “Non-Toxic” throughout. The Activity entry in [10], in [11], in data set [12] and in data set [13] was “Non-Toxic” each time.
With `CC(=O)Nc1ccc(C(=O)NCCCN)cc1OCc1ccncc1`, in data set [3], the CHI amounted to 0.1. Also, in “physchem”, the kinetic solubility turned out to be 112 µg/mL (≈ 327 µM). The molecule further had a Papp in the data set “in vitro” of 0.3 ×10⁻⁶ cm/s.
The matching figures for `CC(=O)Nc1ccccc1OCc1ccccc1`: 4.9, 113 µg/mL (≈ 468 µM) and 78 ×10⁻⁶ cm/s.
As to `CC(=O)Nc1ccc(C(=O)NCCCN)cc1OCC1CCOCC1`, the IC50 in data set [1] and in data set [2] was more than 50.1 µM each time. Besides, in [3], the CHI was 0.4. Further, the solubility (kinetic) in “physchem” was determined as 144 µg/mL (≈ 412 µM). In the data set “in vitro”, this molecule came in with a Papp of less than 0.3 ×10⁻⁶ cm/s.
With `CC(=O)Nc1ccc(C(=O)NCCCN)cc1OCc1ccccn1`, the IC50 in data set [1] was 10 µM; in data set [2] it was more than 50.1 µM. The CHI in [3] came out at 0.3. This molecule also had a solubility (kinetic) in the data set “physchem” of 80 µg/mL (≈ 234 µM). In the data set “in vitro”, this molecule came in with a Papp of less than 0.3 ×10⁻⁶ cm/s.
The matching figures for `CCNC(=O)c1cc(F)c(NC(C)=O)c(OCc2ccccc2)c1`: 1 µM, more than 50.1 µM, 3.1, 18 µg/mL (≈ 54.5 µM) and 11 ×10⁻⁶ cm/s.
For `CC(=O)Nc1ccc(C(=O)NCC2CCOCC2)cc1OCc1ccccc1` the same measures were 2.51 µM, more than 50.1 µM, 3.5, 174 µg/mL (≈ 455 µM) and 19 ×10⁻⁶ cm/s.
In turn, `CC(=O)Nc1ccc(C(=O)NCCc2cnc[nH]2)cc1OCc1ccccc1` showed a CHI in data set [3] of 2.2. The kinetic solubility in “physchem” is 125 µg/mL (≈ 330 µM). For the same molecule, in “in vitro”, the apparent permeability (Papp) amounted to 0.8 ×10⁻⁶ cm/s.
For the molecule `CCNC(=O)c1ccc(NC(C)=O)c(OCc2ccccc2)c1F`, the half-maximal inhibitory concentration (IC50) was 20 µM in data set [1] and more than 50.1 µM in data set [2]. The same molecule showed a CHI in [3] of 2.5. In addition, the kinetic solubility in the data set “physchem” was 119 µg/mL (≈ 360 µM). The same molecule returned a Papp in the data set “in vitro” of 46 ×10⁻⁶ cm/s.
With `CC(=O)Nc1ccc(C(=O)NC2CCOCC2)cc1O[C@@H](C)c1ccccc1`, the Drug metabolism result in [14] and in data set [15] was “Metabolite_Detected” each time. Besides, the 50% inhibitory concentration (IC50) in data set [1] is 0.251 µM; in [2] it was 31.6 µM. In data set [3], this molecule returned a CHI of 3.7. Besides, in “physchem”, the kinetic solubility came out at 215 µg/mL (≈ 562 µM). Further, in the data set “in vitro”, the Papp is 34 ×10⁻⁶ cm/s.
Take `CC(=O)Nc1ccc(C(=O)NCCCN)cc1OCc1ccc(C)cc1`: the concentration for half-maximal inhibition (IC50) in data set [1] is 2 µM; in data set [2] it was 31.6 µM. In data set [3], this molecule had a CHI of 2. Besides, the kinetic solubility in the data set “physchem” stood at 114 µg/mL (≈ 321 µM). In the data set “in vitro”, this molecule registered a Papp of 0.65 ×10⁻⁶ cm/s.
The matching figures for `CC(=O)Nc1ccc(C(=O)NCCCN)cc1OC(C)c1ccccc1` (racemic): 0.501 µM, 20 µM, 1.7, 159 µg/mL (≈ 447 µM) and less than 0.3 ×10⁻⁶ cm/s.
